These results are taken from patent US20250360134A1, “6-6 OR 5-6 FUSED BICYCLIC COMPOUNDS COMPRISING A PYRI(MI)DINE RING USEFUL IN THE|TREATMENT OF INFECTIOUS DISEASES” (INSTITUT NATIONAL DE LA SANTE ET DE LA RECHERCHE MEDICALE …, priority 2020, published 2025).

Data set [1] deals with Plasmodium falciparum 3D7. Nature of the data set: In vitro antiplasmodial activity, SYBR Green I, strain 3D7.
Experimental: (§3) The in vitro antiplasmodial activities were tested over concentrations ranging from 39 to 40 μm against culture-adapted Plasmodium falciparum: reference strains 3D7 and W2. […] The parasites were cultivated in RPMI medium (Sigma-Aldrich, Lyon, France) supplemented with 0.5% Albumax I (Life Technologies Corporation, Paisley, UK), hypoxanthine (Sigma-Aldrich), and gentamicin (Sigma-Aldrich) with human erythrocytes and were incubated at 37° C. in a candle jar, as described in Desjardins R E et al., Antimicrob Agents Chemother, 1979; 16:710-18.
(§4) The P. falciparum drug susceptibility test was carried out in 96-well flat bottom sterile plates in a final volume of 250 μL. After a 48-hour incubation with the drugs, quantities of DNA in treated and control cultures of parasites in human erythrocytes were quantified using the SYBR Green I (Sigma-Aldrich) fluorescence-based method as described in Bennett T N et al, Antimicrob Agents Chemother, 2004; 48:1807-10. Briefly, after incubation, plates were frozen at −20° C. until use. Plates were then thawed for 2 hours at room temperature, and 100 μL of each homogenized culture was transferred to a well of a 96-well flat bottom sterile black plate (Nunc, Inc., Rochester, NY) that contained 100 μL of the SYBR Green I lysis buffer (2×SYBR Green, 20 mM Tris base pH 7.5, 5 mM EDTA, 0.008% w/v saponin, 0.08% w/v Triton X-100). […] Plates were incubated for 1 hour at room temperature and then read on a fluorescence plate reader (Tecan, Grödig, Austria) using excitation and emission wavelengths of 485 and 535 nm, respectively. Concentrations inhibiting 50% of the parasite's growth (half maximal inhibitory concentration or IC50 values) were then calculated from the obtained experimental results by non-linear regression analysis of data from dose-response curves, using TableCurve 2D version 5.0 software (Systat Software, San Jose, CA). IC50 values are reported as means calculated from three independent experiments, as described in H. Kaddouri et al., Antimicrob.
Data set [2] in a line: Cytotoxicity evaluation, MTT. Format: cell-based, human. The settings on record: HepG2 cells (hepatocarcinoma-derived, ATCC HB-8065); human HepG2 cells, 72 hours, MTT. The method, then: (§1) The aim of this assay was to evaluate the impact of metabolic activation of the tested compounds on cell viability.
(§2) A cytotoxicity evaluation was performed using the method reported in Emami S A et al., Iran J Basic Med Sci 2012; 15:807-11 to determine the cytotoxic concentrations 50% (CC50) and using doxorubicin as a cytotoxic reference compound. These assays were performed in human HepG2 cells. HepG2 cells were purchased from ATCC (ref HB-8065). These cells are a commonly used human hepatocarcinoma-derived cell line that has characteristics similar to those of primary hepatocytes. These cells express many hepatocyte-specific metabolic enzymes, thus enabling the cytotoxicity of tested product metabolites to be evaluated. Briefly, cells in 100 μl of complete RPMI medium [RPMI supplemented with 10% FCS, 1% 1-glutamine (200 mM), penicillin (100 U/ml), and streptomycin (100 μg/ml)] were inoculated into each well of 96-well plates and incubated at 37° C. in a humidified chamber in 6% CO2. After 24 hours, 100 μl of medium with test compound at various concentrations dissolved in DMSO (final concentration less than 0.5% v/v) was added, and the plates were incubated for 72 hours at 37° C. Duplicate assays were performed for each sample. Each well was microscopically examined for precipitate formation before the medium was aspirated from the wells. After aspiration, 100 μl of MTT solution (0.5 mg/ml in medium without FCS) were then added to each well. Cells were incubated for 2 hours at 37° C. MTT solution was removed, and DMSO (100 μl) was added to dissolve the resulting blue formazan crystals. Plates were shaken vigorously (300 rpm) for 5 min. The absorbance was measured at 570 nm with 630 nm as reference wavelength in a BIO-TEK ELx808 Absorbance Microplate Reader. DMSO was used as blank and doxorubicin (Sigma-Aldrich) as positive control. Cell viability was calculated as percentage of control (cells incubated without compound).

In data set [3] the test system is human duplex sequence FdxT. Briefly: FRET-melting, FdxT. Conditions: duplex control, K+ condition, 2 μM compound, 0.2 μM oligonucleotide.
The test system of data set [4] is human telomeric sequence F21T. Nature of the data set: FRET-melting, F21T. Conditions: K+ condition, 2 μM compound, 0.2 μM oligonucleotide.
The test system of data set [5] is T. brucei brucei AnTat 1.9. Nature of the data set: In vitro antitrypanosomal activity, Alamar Blue assay. Format: cell-based, Trypanosoma brucei brucei. The settings on record: read-out: IC50 T. brucei brucei. The procedure, abridged:
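Bloodstream-form parasites (2000/well) cultured in modified MEM with 20% heat-inactivated horse serum, 37 °C, 5% CO2, exposed in duplicate to compound in 0.9% NaCl for 69 h. Alamar Blue added for 5 h, fluorescence at 530/590 nm; IC50 by non-linear regression, from three independent experiments.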
Background: Resazurin is reduced to fluorescent resorufin, in cell work by metabolically active cells.

Data set [6] concerns Plasmodium falciparum W2. Briefly: In vitro antiplasmodial activity, SYBR Green I, strain W2.
Experimental: as §3, §4
The test system of data set [7] is SARS-CoV-2. Briefly: microbe, parasite or virus in culture. In kind it is cell-based. The settings on record: Severe acute respiratory syndrome coronavirus 2; A549 cells expressing human ACE2, 72 hours after infection, RT-PCR of the N-gene; read-out: IC50 RTqPCR SARS-CoV-2. For orientation: In qPCR the cycle at which signal appears reflects the starting amount.
Data set [8] has as its system Plasmodium telomeric sequence FPf1T. Briefly: FRET-melting, FPf1T. The settings on record: K+ condition, 2 μM compound, 0.2 μM oligonucleotide.
Data set [9] deals with Plasmodium telomeric sequence FPf8T. Nature of the data set: FRET-melting, FPf8T. Conditions: K+ condition, 2 μM compound, 0.2 μM oligonucleotide.
Data set [10] concerns Trypanosoma 9 and 11 chromosomic sequence FTrypBT. Nature of the data set: FRET-melting, FTrypBT. The settings on record: K+ condition, 2 μM compound, 0.2 μM oligonucleotide.
For data set [11], the system named is HepG2 cells. Nature of the data set: Cytotoxicity evaluation, MTT. In kind it is cell-based, human. The method, then: as §1, §2
Where [12] appears, read: Plasmodium falciparum, 3D7, 48 h, read-out: IC50 Plasmodium falciparum 3D7, chloroquine-sensitive strain 3D7, 48-hour incubation.
Where [13] appears, read: Plasmodium falciparum, W2, 48 h, read-out: IC50 Plasmodium falciparum W2, chloroquine-resistant strain W2, 48-hour incubation.

Structures can show the parent of a compound that is named as a salt. Where two headings read alike, the source gives them in different places.

Regarding `CN(C)CCCNCc1ccc(-c2nc(-c3ccc(CNCCCN(C)C)cc3)c3ccn(-c4ccc(CNCCCN(C)C)cc4)c3n2)cc1` [Compound 13B, 2,4,7-Tri{4-[(3-dimethylaminopropyl)aminomethyl]phenyl}-7H-pyrrolo[2,3-d]pyrimidine oxalate], the IC50 (commonly the concentration at which inhibition is half-maximal) in data set [1] (setting [12]) turned out to be 2440 ± 1270 nM; in data set [5] (Trypanosoma brucei, 69 h) it was 860 ± 70 nM; in [6] (setting [13]), 10600 ± 690 nM; in data set [7], 170 nM. This molecule showed a 50% inhibitory concentration (IC50) at 72 h in [2] of 26700 nM. Also, in data set [3], the “FRET-melting values in K+ conditions at 2 μM ΔTm FdxT” value stood at 5.4 °C. Further, in data set [4], the “FRET-melting values in K+ conditions at 2 μM ΔTm F21T” value worked out at 29.1 °C. Further, the “FRET-melting values in K+ conditions at 2 μM ΔTm FPf1T” value in data set [8] turned out to be 33.1 °C. In data set [9], the “FRET-melting values in K+ conditions at 2 μM ΔTm FPf8T” value worked out at 34.6 °C. In data set [10], the “FRET-melting values in K+ conditions at 2 μM ΔTm FtryBT” value was determined as 30.7 °C.

For the molecule “2-(3-Dimethylaminopropylamino)-4-{4-[(4-dimethylaminopropyl)aminomethyl]phenyl}-7-phenyl-7H-pyrrolo[2,3-d]pyrimidine oxalate [Compound 14B]”, the IC50 turned out to be 1480 ± 290 nM in [1] (read-out: IC50 Plasmodium falciparum 3D7, chloroquine-sensitive strain 3D7, 48-hour incubation); 13500 nM in [11]; 890 ± 90 nM in data set [5] (69-hour incubation, Alamar Blue); 290 ± 100 nM in data set [6] (read-out: IC50 Plasmodium falciparum W2, chloroquine-resistant strain W2, 48-hour incubation). Also, the “FRET-melting values in K+ conditions at 2 μM ΔTm FdxT” value in data set [3] is −0.7 °C.

On to `CN(C)CCCNCc1ccc(-c2nc(-c3ccc(CNCCCN(C)C)cc3)c3ccn(-c4ccccc4)c3n2)cc1` [Compound 1B, 2,4-bis{4-[(3-dimethylaminopropyl)aminomethyl]phenyl}-7-phenyl-7H-pyrrolo[2,3-d]pyrimidine oxalate], for which the IC50 in [1] (setting [12]) is 2220 ± 120 nM; in [5] (Trypanosoma brucei, 69 h) it was 550 ± 70 nM; in data set [6] (setting [13]), 2710 ± 140 nM; in data set [7], 330 nM. For the same molecule, in data set [2], inhibition was half-maximal at 1640 nM (IC50 at 72 h). In addition, the “FRET-melting values in K+ conditions at 2 μM ΔTm FdxT” value in data set [3] turned out to be 1.2 °C. The “FRET-melting values in K+ conditions at 2 μM ΔTm F21T” value in data set [4] was 22.8 °C. The “FRET-melting values in K+ conditions at 2 μM ΔTm FPf1T” value in data set [8] came to 23.6 °C. In data set [9], the “FRET-melting values in K+ conditions at 2 μM ΔTm FPf8T” value amounted to 23.5 °C. For the same molecule, the “FRET-melting values in K+ conditions at 2 μM ΔTm FtryBT” value in data set [10] was found to be 20.5 °C.
